Test results reported in ChEMBL document CHEMBL6177951, “Synthesis and anti-MRSA activity of quaternized small molecule antimicrobial peptide mimics based on norharmane” (Eur J Med Chem, 2025).
Calls of active or inactive are those of the source. The calls are words filed in the database; no cut-off is given here.

Assays:
Staphylococcus aureus [1] = assay: Antibacterial activity against methicillin-resistant Staphylococcus aureus clinical isolate M-20 incubated for 14 hrs by two-fold serial dilution method; type: functional
Staphylococcus aureus [2] = assay: Antibacterial activity against methicillin-resistant Staphylococcus aureus clinical isolate M-15 incubated for 14 hrs by two-fold serial dilution method; type: functional
Staphylococcus aureus [3] = assay: Induction of oxidative damage in methicillin-resistant Staphylococcus aureus assessed as loss of GSH activity incubated for 8 hrs; type: functional, organism-based; conditions: dose 0.25-2 µg/ml
Staphylococcus aureus [4] = assay: Antibacterial activity against methicillin-resistant Staphylococcus aureus assessed as reduction in bacterial growth by measuring fold increase in MIC in presence of 32 ug/ml peptidoglycan incubated for 0.5 hrs by exogenous addition assay; type: functional
Staphylococcus aureus [5] = assay: Antibacterial activity against Staphylococcus aureus ATCC 29213 assessed as inhibition of bacterial growth incubated for 14 hrs by two-fold serial dilution method; type: functional
Staphylococcus aureus [6] = assay: Induction of morphological changes in methicillin-resistant Staphylococcus aureus assessed as appearance of rough cell surface at 0.5 ug/ml incubated for 6 hrs by SEM analysis; type: functional, organism-based; conditions: dose 0.5 µg/ml
Calf thymus DNA [7] = assay: Binding affinity to calf thymus DNA assessed as dissociation constant by ITC assay; type: nucleic-acid assay, Bos taurus
Staphylococcus aureus [8] = assay: Antibacterial activity against Staphylococcus aureus CMCC 26003 assessed as inhibition of bacterial growth incubated for 14 hrs by two-fold serial dilution method; type: functional
Staphylococcus aureus [9] = assay: Antibacterial activity against methicillin-resistant Staphylococcus aureus clinical isolate M-17 incubated for 14 hrs by two-fold serial dilution method; type: functional
Staphylococcus aureus [10] = assay: Antibacterial activity against methicillin-resistant Staphylococcus aureus clinical isolate M-13 incubated for 14 hrs by two-fold serial dilution method; type: functional
[11] = Acute toxicity in female Kunming mouse assessed as aberrant appearance at 500 to 2000 mg/kg, sc measured after 7 days; type: organism-based; conditions: in vivo, 168 h, dose 500-2000 mg/kg, time 7 day
Staphylococcus aureus [12] = assay: Induction of morphological changes in methicillin-resistant Staphylococcus aureus assessed as appearance of holes in cells at 0.5 ug/ml incubated for 6 hrs by SEM analysis; type: functional, organism-based; conditions: dose 0.5 µg/ml
Staphylococcus aureus [13] = assay: Antibacterial activity against Staphylococcus aureus ATCC 33591 assessed as inhibition of bacterial growth at 0.5 times MIC measured at 0 to 12 hrs by growth kinetic assay; type: functional, organism-based; conditions: time 0-12 hrs
Staphylococcus aureus [14] = assay: Induction of morphological changes in methicillin-resistant Staphylococcus aureus assessed as appearance of fragments at 0.5 ug/ml incubated for 6 hrs by SEM analysis; type: functional, organism-based; conditions: dose 0.5 µg/ml
[15] = Toxicity in female Kunming mouse assessed as inflammatory response in liver at 500 to 2000 mg/kg, sc measured after 7 days by H and E staining based analysis; type: organism-based; conditions: in vivo, 168 h, dose 500-2000 mg/kg, time 7 day
Staphylococcus aureus [16] = assay: Antibacterial activity against methicillin-resistant Staphylococcus aureus ATCC 43300 assessed as inhibition of bacterial growth incubated for 14 hrs by two-fold serial dilution method; type: functional
Calf thymus DNA [17] = assay: Binding affinity to calf thymus DNA assessed as binding constant by ITC assay; type: nucleic-acid assay; conditions: Bos taurus
Staphylococcus aureus [18] = assay: Antibacterial activity against methicillin-resistant Staphylococcus aureus clinical isolate M-14 incubated for 14 hrs by two-fold serial dilution method; type: functional
Staphylococcus aureus [19] = assay: Antibacterial activity against methicillin-resistant Staphylococcus aureus clinical isolate M-23 incubated for 14 hrs by two-fold serial dilution method; type: functional
Staphylococcus aureus [20] = assay: In vivo antibacterial activity against methicillin-resistant Staphylococcus aureus infected in female Kunming mouse skin infection model assessed as recovery of dorsal surface at 5 to 20 mg/kg measured after 48 hrs; type: functional, organism-based; conditions: dose 5-20 mg/kg
Staphylococcus aureus [21] = assay: Antibacterial activity against Staphylococcus aureus ATCC 33591 assessed as inhibition of bacterial growth at 1 to 2 times MIC measured after 24 hrs by growth kinetic assay; type: functional, organism-based
Lipoteichoic acid = assay: Displacement of BODIPY-TR-cadaverine from Staphylococcus aureus LTA assessed as increase in fluorescence intensity at 2 ug/ml incubated for 0.5 hrs by fluorescence based analysis relative to control; conditions: dose 2.0 µg/ml
Staphylococcus aureus [22] = assay: Antibacterial activity against methicillin-resistant Staphylococcus aureus clinical isolate M-21 incubated for 14 hrs by two-fold serial dilution method; type: functional
[23] = Toxicity in female Kunming mouse assessed as abnormality inside skin at 5 to 20 mg/kg, sc measured after 48 hrs; type: organism-based; conditions: in vivo, dose 5-20 mg/kg
Staphylococcus aureus [24] = assay: Antibacterial activity against methicillin-resistant Staphylococcus aureus assessed as change in cell surface zeta potential at 256 ug/ml incubated for 8 hrs; type: functional, organism-based; conditions: dose 256.0 µg/ml
Staphylococcus aureus [25] = assay: In vivo antibacterial activity against methicillin-resistant Staphylococcus aureus infected in female Kunming mouse skin infection model assessed as reduction in inflammatory cells at 5 to 20 mg/kg measured after 48 hrs by H and E staining based analysis; type: functional, organism-based; conditions: dose 5-20 mg/kg
Staphylococcus aureus [26] = assay: Antibiofilm activity against methicillin-resistant Staphylococcus aureus assessed as inhibition of biofilm formation at 4 ug/ml incubated for 24 hrs by crystal violet staining based analysis relative to control; type: functional; set-up: scale not given: the % may be the effect or the level left; conditions: dose 4 µg/ml
Calf thymus DNA [27] = assay: Binding affinity to calf thymus DNA assessed as change in Gibbs free energy at 3 uM by ITC assay; type: nucleic-acid assay; conditions: Bos taurus
[28] = Toxicity in female Kunming mouse assessed as inflammatory response in kidney at 500 to 2000 mg/kg, sc measured after 7 days by H and E staining based analysis; type: organism-based; conditions: in vivo, 168 h, dose 500-2000 mg/kg, time 7 day
Staphylococcus aureus [29] = assay: Antibacterial activity against methicillin-resistant Staphylococcus aureus assessed as reduction in LDH activity incubated for 8 hrs; type: functional, organism-based; conditions: dose 0.25-2 µg/ml
Staphylococcus aureus [30] = assay: Antibacterial activity against methicillin-resistant Staphylococcus aureus assessed as increase MIC incubated for 6 hrs in presence of 70 to 100% sheep plasma; type: functional
L02 = assay: Cytotoxicity against human L02 cells assessed as reduction in cell viability at 0.25 ug/ml incubated for 24 hrs by CCK-8 assay relative to control; type: toxicity, cell-based; conditions: l02, 24 h, at 0.25 µg/mL
Staphylococcus aureus [31] = assay: Bactericidal activity against Staphylococcus aureus ATCC 33591 assessed as eradication of bacteria at 4 times MIC measured at 4 hrs by time-kill kinetic assay relative to control; type: functional
[32] = Toxicity in female Kunming mouse assessed as inflammatory cell infiltration at 5 to 20 mg/kg, sc measured after 48 hrs by H and E staining based analysis; type: organism-based; conditions: in vivo, dose 5-20 mg/kg
Staphylococcus aureus [33] = assay: Antibiofilm activity against methicillin-resistant Staphylococcus aureus assessed as disruption of preformed biofilm at 0.25 to 16 ug/ml incubated for 24 hrs by crystal violet staining based analysis; type: functional, organism-based; conditions: dose 0.25-16 µg/ml
[34] = Acute toxicity in female Kunming mouse assessed as mortality at 500 to 2000 mg/kg, sc measured after 7 days; type: organism-based; conditions: in vivo, 168 h, dose 500-2000 mg/kg, time 7 day
Cell membrane [35] = assay: Induction of cytoplasmic membrane depolarization in methicillin-resistant Staphylococcus aureus assessed as increase in fluorescence intensity by DiSC35 dye based microplate reader analysis; type: subcellular
Calf thymus DNA [36] = assay: Binding affinity to calf thymus DNA assessed as change in entropy at 3 uM by ITC assay; type: nucleic-acid assay; conditions: Bos taurus
Staphylococcus aureus [37] = assay: Antibacterial activity against methicillin-resistant Staphylococcus aureus clinical isolate M-22 incubated for 14 hrs by two-fold serial dilution method; type: functional
Staphylococcus aureus [38] = assay: Antibacterial activity against methicillin-resistant Staphylococcus aureus assessed as reduction in bacterial growth in presence of 16 ug/ml peptidoglycan incubated for 0.5 hrs by exogenous addition assay; type: functional, organism-based
Cell membrane [39] = assay: Induction of cell membrane permeability in methicillin-resistant Staphylococcus aureus assessed as increase in protein leakage at 2 ug/ml incubated for 8 hrs by Bradford assay; type: subcellular; conditions: dose 2.0 µg/ml

C[n+]1ccc2c3ccccc3n(CCCCCCCCCCCn3c4ccccc4c4cc[n+](C)cc43)c2c1.[I-].[I-]
MIC (Staphylococcus aureus [1]): 0.5 µg/mL | MIC (Staphylococcus aureus [2]): 0.5 µg/mL | Activity (Staphylococcus aureus [3]): Dose-dependent-effect | fold change (FC) (Staphylococcus aureus [4]): 4 | MIC (Staphylococcus aureus [5]): 1 µg/mL | Activity (Staphylococcus aureus [6]): Active | Kd (Calf thymus DNA [7]): 4.52 µM | MIC (Staphylococcus aureus [8]): 0.25 µg/mL | MIC (Staphylococcus aureus [9]): 0.5 µg/mL | MIC (Staphylococcus aureus [10]): 1 µg/mL | Activity [11]: Non-toxic | Activity (Staphylococcus aureus [12]): Active | Activity (Staphylococcus aureus [13]): Active | Activity (Staphylococcus aureus [14]): Active | Activity [15]: Non-toxic | MIC (Staphylococcus aureus [16]): 1 µg/mL | K (Calf thymus DNA [17]): 2.21 10^5/M | MIC (Staphylococcus aureus [18]): 0.25 µg/mL | MIC (Staphylococcus aureus [19]): 0.5 µg/mL | Activity (Staphylococcus aureus [20]): Active | Activity (Staphylococcus aureus [21]): Active | Activity (Lipoteichoic acid): 31.7% | MIC (Staphylococcus aureus [22]): 1 µg/mL | Activity [23]: Non-toxic | Activity (Staphylococcus aureus [24]): Active | Activity (Staphylococcus aureus [25]): Active | Activity (Staphylococcus aureus [26]): 98% | deltaG (Calf thymus DNA [27]): -7.29 kcal/mol | Activity [28]: Non-toxic | Activity (Staphylococcus aureus [29]): Dose-dependent-effect | MIC (Staphylococcus aureus [30]): 0.5 µg/mL | Activity (L02): 97.25% | Activity (Staphylococcus aureus [31]): 100% | Activity [32]: Non-toxic | Activity (Staphylococcus aureus [33]): inactive | Activity [34]: Non-toxic | Activity (Cell membrane [35]): Dose-dependent-effect | deltaS (Calf thymus DNA [36]): 99.2 J/mol.K | MIC (Staphylococcus aureus [37]): 0.5 µg/mL | Activity (Staphylococcus aureus [38]): Active | Activity (Cell membrane [39]): 27.8 µg/mL
